Key:
Cancer Cell = assay: Cancer cell growth inhibition; type: cell-based; design: key: Y is an indication that activity was found
Protocol: BrDU incorporation and cell proliferation assays—Cell proliferation rates were measured by using the CellTitre™ 96 AqueousOne™ kit (Promega™) and bromodeoxyuridine (BrdU) assay kit (Millipore™) according to the manufacturer's protocol, with minor modifications as we have previously described by Li H. et al.^19

Topoisomerase II = molecular target: T1, Topoisomerase II (Homo sapiens, UniProt P11388); assay: Topoisomerase II inhibition screening (supercoiled plasmid relaxation, then kDNA decatenation); type: biochemical; design: key to TOP2 Inhib.: Y is an indication that activity was found; details: for relative activity among compounds tested in the screening round: medium throughput relaxation and kDNA decatenation assays
T1 construct: purchased TopoGENE (TopoGEN) TG2000H / kit TG1001
T1 sequence (P11388 whole entry): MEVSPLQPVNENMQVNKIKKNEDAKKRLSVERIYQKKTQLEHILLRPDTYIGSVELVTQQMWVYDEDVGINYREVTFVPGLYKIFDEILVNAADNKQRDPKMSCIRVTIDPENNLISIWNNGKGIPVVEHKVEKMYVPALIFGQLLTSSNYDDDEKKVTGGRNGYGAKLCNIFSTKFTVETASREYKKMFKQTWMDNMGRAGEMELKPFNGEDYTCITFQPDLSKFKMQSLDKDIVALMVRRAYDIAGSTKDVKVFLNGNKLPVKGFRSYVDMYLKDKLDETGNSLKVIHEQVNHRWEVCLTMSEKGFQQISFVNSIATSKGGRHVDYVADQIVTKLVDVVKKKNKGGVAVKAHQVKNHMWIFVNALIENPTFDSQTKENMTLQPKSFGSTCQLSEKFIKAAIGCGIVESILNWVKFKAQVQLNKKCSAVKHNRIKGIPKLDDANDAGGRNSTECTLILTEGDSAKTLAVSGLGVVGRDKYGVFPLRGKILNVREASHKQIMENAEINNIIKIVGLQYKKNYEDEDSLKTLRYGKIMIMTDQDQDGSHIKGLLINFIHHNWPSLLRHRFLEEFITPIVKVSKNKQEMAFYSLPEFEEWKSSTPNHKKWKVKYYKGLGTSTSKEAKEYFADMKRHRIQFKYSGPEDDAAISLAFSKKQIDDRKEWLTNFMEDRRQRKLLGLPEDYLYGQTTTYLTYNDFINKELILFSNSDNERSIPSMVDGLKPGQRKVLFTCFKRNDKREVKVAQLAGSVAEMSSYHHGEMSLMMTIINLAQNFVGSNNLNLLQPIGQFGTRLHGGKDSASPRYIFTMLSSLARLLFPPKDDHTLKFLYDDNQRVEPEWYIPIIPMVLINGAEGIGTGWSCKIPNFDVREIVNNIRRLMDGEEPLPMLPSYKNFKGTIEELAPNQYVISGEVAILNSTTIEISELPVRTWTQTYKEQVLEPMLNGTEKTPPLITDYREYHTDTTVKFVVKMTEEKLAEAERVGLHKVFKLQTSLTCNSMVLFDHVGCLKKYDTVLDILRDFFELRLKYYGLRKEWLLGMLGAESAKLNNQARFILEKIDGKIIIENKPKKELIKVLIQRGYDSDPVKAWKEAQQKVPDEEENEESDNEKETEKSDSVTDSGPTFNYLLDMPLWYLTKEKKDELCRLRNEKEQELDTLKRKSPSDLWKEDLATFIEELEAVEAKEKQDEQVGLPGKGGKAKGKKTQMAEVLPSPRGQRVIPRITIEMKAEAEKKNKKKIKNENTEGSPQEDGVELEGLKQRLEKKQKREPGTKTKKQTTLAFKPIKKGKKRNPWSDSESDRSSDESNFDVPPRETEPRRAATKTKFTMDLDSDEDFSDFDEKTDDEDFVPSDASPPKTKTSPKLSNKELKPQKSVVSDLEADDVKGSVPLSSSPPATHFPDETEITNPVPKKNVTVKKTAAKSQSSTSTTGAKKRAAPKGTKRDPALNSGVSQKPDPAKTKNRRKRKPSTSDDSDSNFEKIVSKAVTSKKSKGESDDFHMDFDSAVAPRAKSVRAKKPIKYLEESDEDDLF
Protocol: In vitro Topo II activity assays—K-DNA decatenation assays were performed using the human Topo II assay kit (TG1001, TopoGENE™) with Etoposide and ICRF193 as poison and catalytic inhibitors respectively. DNA relaxation assays were performed by incubating the supercoiled pHOT™ plasmid with human Topo IIα (TG2000H™, TopoGENE™) at 37 degrees for one hour. Reactions were stopped by adding 10% SDS, EDTA and proteinase K. Plasmid DNAs were separated on DNA agarose gel and stained with ethidium bromide for visualization.
Medium Throughput Screening Assays A supercoiled plasmid relaxation assay was used as a first, course filter to determine candidate small molecules. Small molecule candidates that were sufficiently active in the first round screening were then subject to the kDNA decatenation assay.
Second Round Screening With the discovered active compounds 19 and 23, a new screen was initiated to look for similar molecules. For this, the shape similarity screening program ROCS™^10 was used The compounds chosen for the ROCS™ search was based on the docking conformation of Compound 23. The ZINC-15 library filtered down to 6 million molecules described previously was used for this screening. The top 62 molecules were hand-picked based on their ROCS™ similarity as well as their docking scores. These molecules were ordered and tested with the same medium throughput assays previously described. A large enrichment in the proportion of active molecules was observed, of close to 10-fold relative to the first round, validating the virtual screening pipeline.

K562 cells = assay: γH2AX Western blot (DNA damage in cells); type: cell-based; details: 10-20 μM, 4 hours
Protocol: Cytotoxicity was evaluated by measuring LDH levels from cell culture media; (b) K562 cells were treated with either vehicle or 10-20 μM of Top60, Etoposide and ICRF187 for 4 hours. Whole cell lyses were collected to measure γH2AX levels with vinculin as the loading control; (c) K562 cells were treated with 0, 1, 5, 10, 15 and 20 μM of Top60, 20 μM Etoposide or 20 uM ICRF187 for 48 hours. Cell proliferation rates were determined by MTS assays; and (d) K562 cells were treated with 20 μM of Top60, Etoposide or ICRF187 for 0, 24, 48 and 72 hours. Cell proliferation rates were measured by MTS assays. All results were collected from three independent experiments.
Top60 is a catalytic inhibitor of Topo II To verify that our lead Compound 60(Top60), the formation of ds DNA breaks was assayed both in and outside of cells. To assess whether Top60 causes double stranded DNA breaks outside cells, supercoiled plasmid was incubated with and without Top60 in the presence of Topo II (FIG. 1d). […] Furthermore, H2AXγ protein expression was assessed by Western blot to determine if the lead compound could cause DNA damage in cells, and compared to Etoposide as a control (FIG. 3b). […] To determine if Top60 was capable of intercalating DNA, it was incubated with relaxed plasmid at increasing concentrations and compared with m-AMSA, a known intercalator. […]

Compound | Cancer Cell Growth Inhib. (Cancer Cell) | TOP2 Inhib. (Topoisomerase II) | relative activity among compounds tested in the screening round (Topoisomerase II) | DNA damage in cells by H2AXγ protein level (K562 cells)
CC(C)CC(=O)Nc1ccc(NC(=O)c2ccc[nH]c2=S)cc1 [Compound 23] | Y | Y | most active | –
N#Cc1ccc(Oc2ccc(NC(=O)c3ccc[nH]c3=S)cc2)cc1 [Compound 65] | Y | Y | – | –
CC(NC(=O)OC(C)(C)C)c1ccc(NC(=O)c2ccc[nH]c2=S)cc1 (centres unmarked) [Compound 67] | Y | Y | – | –
O=C(Nc1ccc(-n2cc(Br)cn2)nc1)c1ccc2ncsc2c1 [Compound 89] | Y | Y | – | –
CC(Nc1ccc(NC(=O)c2ccc[nH]c2=S)cc1Cl)c1ccccc1 (centres unmarked) [Compound 77] | Y | Y | – | –
CC(C(C)N1CC(=O)NC(=O)C1)N1CC(=O)NC(=O)C1 (centres unmarked) [ICRF, 4-[2-(3,5-Dioxo-1-piperazinyl)-1-methylpropyl]piperazine-2,6-dione, reference compound] | – | – | – | do not cause DNA damage
O=C(Nc1ccc(CN2CCCC2)cc1)c1ccc[nH]c1=S [Compound 62] | Y | Y | – | –
CSc1ccccc1C(=O)Nc1ccc(NC(=O)CC(C)C)cc1 [Compound 72] | Y | Y | – | –
O=C(Nc1ccc(N2CCN(C(=O)c3ccoc3)CC2)cc1)c1ccc(Cl)c(Cl)c1 [Compound 88] | Y | Y | – | –
COc1cccc(Oc2ccc(NC(=O)c3ccc[nH]c3=S)cc2)c1 [Compound 63] | Y | Y | – | –
NC1=C(c2nc3ccccc3s2)C(=O)CN1/N=C\c1ccc(O)c(O)c1 [Compound 19] | Y | Y | most active | –
CCC(=O)Nc1ccc(NC(=O)c2ccc[nH]c2=S)cc1 [Compound 64] | Y | Y | – | –
COc1ccc(Nc2ccc(NC(=O)c3cccnc3S)cc2)cc1 [Compound 112] | Y | Y | – | –
O=C(Nc1ccc(NC2CCCC2)cc1)c1ccc[nH]c1=S [Compound 70] | Y | Y | – | –
O=C(Nc1ccc(NC(=O)N2CCCCCC2)cc1)c1ccc[nH]c1=S [Compound 75] | Y | Y | – | –
CCC(=O)Nc1ccc(Nc2ccc(NC(=O)c3cccnc3S)cc2)cc1 [Compound 113] | Y | Y | – | –
Cc1ccc(C(=O)Nc2ccc(OC3CCCCC3O)cc2)c(=S)[nH]1 (centres unmarked) [Compound 90] | Y | Y | – | –
O=C(Nc1ccc(N2CCc3sccc3C2)nc1)c1cccnc1S [Compound 110] | Y | Y | – | –
CC(Nc1ccc(NC(=O)c2ccc[nH]c2=S)cc1)c1ccccc1 (centres unmarked) [Compound 115] | Y | Y | – | –
COc1ccc(Sc2ccc(NC(=O)c3ccc[nH]c3=S)cc2)cc1 [Compound 68] | Y | Y | – | –
